From patent US11713344B2 (DONG-A ST CO., LTD., priority 2017, dated 2023) come the findings set out here.

One assay concerns the target Human GLP-1 receptors (Homo sapiens, UniProt P43220). Nature of the assay: GLP-1 receptor activation assay (CRE-luciferase reporter, CHO-K1). A general note: In a reporter assay the amount or activity of a reporter protein is the signal.
A further assay addresses Human glucagon receptors (Homo sapiens, UniProt P47871). Nature of the assay: Glucagon receptor activation assay (CRE-luciferase reporter, CHO-K1).

Chain of Human glucagon receptors (P47871 26-477): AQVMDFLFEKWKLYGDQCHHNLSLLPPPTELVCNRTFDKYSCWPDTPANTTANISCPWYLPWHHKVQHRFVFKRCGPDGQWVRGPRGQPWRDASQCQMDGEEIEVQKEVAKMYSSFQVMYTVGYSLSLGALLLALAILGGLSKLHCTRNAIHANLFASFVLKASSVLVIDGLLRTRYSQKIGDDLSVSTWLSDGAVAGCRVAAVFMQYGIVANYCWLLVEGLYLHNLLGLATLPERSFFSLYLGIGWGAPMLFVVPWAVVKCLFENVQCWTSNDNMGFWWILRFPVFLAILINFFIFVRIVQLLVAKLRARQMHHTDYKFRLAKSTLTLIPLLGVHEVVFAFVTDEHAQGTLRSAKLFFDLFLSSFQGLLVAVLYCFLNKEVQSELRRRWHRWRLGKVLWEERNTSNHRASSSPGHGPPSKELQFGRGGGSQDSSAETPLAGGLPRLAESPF
Chain of Human GLP-1 receptors (P43220 24-463): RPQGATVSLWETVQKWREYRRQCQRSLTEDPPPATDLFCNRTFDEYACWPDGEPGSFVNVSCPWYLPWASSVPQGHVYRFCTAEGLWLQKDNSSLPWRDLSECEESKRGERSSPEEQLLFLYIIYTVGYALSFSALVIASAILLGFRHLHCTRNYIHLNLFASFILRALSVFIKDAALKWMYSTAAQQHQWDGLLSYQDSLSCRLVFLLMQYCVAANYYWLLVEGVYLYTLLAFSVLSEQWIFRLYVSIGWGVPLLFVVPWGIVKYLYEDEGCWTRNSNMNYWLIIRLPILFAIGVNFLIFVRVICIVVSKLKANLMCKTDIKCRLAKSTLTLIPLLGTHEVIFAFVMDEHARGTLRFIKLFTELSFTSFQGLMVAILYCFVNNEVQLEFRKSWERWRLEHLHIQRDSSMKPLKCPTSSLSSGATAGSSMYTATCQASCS

As for `CCCCCCCCCCCCCCCCCC(=O)N[C@@H](CCC(=O)NCC(=O)N[C@@H](CO)C(=O)NCC(=O)N[C@@H](CO)C(=O)NCC(=O)NCC(=O)NCCCC[C@H](NC(=O)[C@H](CC(=O)O)NC(=O)[C@H](CO)NC(=O)[C@@H](NC(=O)[C@H](Cc1ccccc1)NC(=O)[C@@H](NC(=O)CNC(=O)[C@H](CCC(N)=O)NC(=O)C(C)(C)NC(=O)[C@@H](N)Cc1c[nH]cn1)[C@@H](C)O)[C@@H](C)O)C(=O)N[C@@H](CO)C(=O)N[C@@H](CCCCN)C(=O)N[C@@H](Cc1ccc(O)cc1)C(=O)N[C@@H](CC(C)C)C(=O)N[C@@H](CC(=O)O)C(=O)NC(C)(C)C(=O)N[C@@H](CCCNC(=N)N)C(=O)N[C@@H](CCCNC(=N)N)C(=O)N[C@@H](C)C(=O)N[C@@H](CCC(N)=O)C(=O)N[C@@H](CC(=O)O)C(=O)N[C@@H](Cc1ccccc1)C(=O)N[C@H](C(=O)N[C@@H](CCC(N)=O)C(=O)N[C@@H](Cc1c[nH]c2ccccc12)C(=O)N[C@@H](CC(C)C)C(=O)N[C@@H](CCSC)C(=O)N[C@@H](CC(N)=O)C(=O)N[C@H](C(=O)N[C@@H](CCCCN)C(=O)O)[C@@H](C)O)C(C)C)C(=O)O` [Compound 11], the EC50 is less than 10 pM at Human GLP-1 receptors and 10 to 100 pM on Human glucagon receptors.

With `CCCCCCCCCCCCCCCCCC(=O)N[C@@H](CCC(=O)NCCOCCOCC(=O)NCCOCCOCC(=O)NCCCC[C@H](NC(=O)[C@H](CC(=O)O)NC(=O)[C@H](CO)NC(=O)[C@@H](NC(=O)[C@H](Cc1ccccc1)NC(=O)[C@@H](NC(=O)CNC(=O)[C@H](CCC(N)=O)NC(=O)C(C)(C)NC(=O)[C@@H](N)Cc1c[nH]cn1)[C@@H](C)O)[C@@H](C)O)C(=O)N[C@@H](CO)C(=O)N[C@@H](CCCCN)C(=O)N[C@@H](Cc1ccc(O)cc1)C(=O)N[C@@H](CC(C)C)C(=O)N[C@@H](CC(=O)O)C(=O)NC(C)(C)C(=O)N[C@@H](CCCNC(=N)N)C(=O)N[C@@H](CCCNC(=N)N)C(=O)N[C@@H](C)C(=O)N[C@@H](CCC(N)=O)C(=O)N[C@@H](CC(=O)O)C(=O)N[C@@H](Cc1ccccc1)C(=O)N[C@H](C(=O)N[C@@H](CCC(N)=O)C(=O)N[C@@H](Cc1c[nH]c2ccccc12)C(=O)N[C@@H](CC(C)C)C(=O)N[C@@H](CC(C)C)C(=O)N[C@@H](CCCNC(=N)N)C(=O)N[C@@H](C)C(=O)N[C@@H](CCCCN)C(=O)O)C(C)C)C(=O)O` [Compound 12], the EC50 on Human GLP-1 receptors and on Human glucagon receptors was less than 10 pM throughout.

Consider `CSCC[C@H](NC(=O)[C@H](CC(C)C)NC(=O)[C@H](Cc1c[nH]c2ccccc12)NC(=O)[C@H](CCC(N)=O)NC(=O)[C@@H](NC(=O)[C@H](Cc1ccccc1)NC(=O)[C@H](CC(=O)O)NC(=O)[C@H](CCC(N)=O)NC(=O)[C@H](C)NC(=O)[C@H](CCCNC(=N)N)NC(=O)[C@H](CCCNC(=N)N)NC(=O)C(C)(C)NC(=O)[C@H](CC(=O)O)NC(=O)[C@H](CC(C)C)NC(=O)[C@H](Cc1ccc(O)cc1)NC(=O)[C@H](CCCCN)NC(=O)[C@H](CO)NC(=O)[C@H](CCCCNC(=O)COCCOCCNC(=O)COCCOCCNC(=O)CC[C@H](NC(=O)CCCCCCCCCCCCCCCCC(N)=O)C(=O)O)NC(=O)[C@H](CC(=O)O)NC(=O)[C@H](CO)NC(=O)[C@@H](NC(=O)[C@H](Cc1ccccc1)NC(=O)[C@@H](NC(=O)CNC(=O)[C@H](CCC(N)=O)NC(=O)C(C)(C)NC(=O)[C@@H](N)Cc1c[nH]cn1)[C@@H](C)O)[C@@H](C)O)C(C)C)C(=O)N[C@@H](CC(N)=O)C(=O)N[C@H](C(=O)N[C@@H](CCCCN)C(=O)O)[C@@H](C)O` [Compound 13], for which the concentration giving a half-maximal response (EC50) at Human GLP-1 receptors and on Human glucagon receptors was 10 to 100 pM in each case.

Regarding `CCCCCCCCCCCCCCCCCC(=O)N[C@@H](CCC(=O)NCCOCCOCC(=O)NCCOCCOCC(=O)NCCCC[C@H](NC(=O)[C@H](CC(=O)O)NC(=O)[C@H](CO)NC(=O)[C@@H](NC(=O)[C@H](Cc1ccccc1)NC(=O)[C@@H](NC(=O)CNC(=O)[C@H](CCC(N)=O)NC(=O)C(C)(C)NC(=O)[C@@H](N)Cc1c[nH]cn1)[C@@H](C)O)[C@@H](C)O)C(=O)N[C@@H](CO)C(=O)N[C@@H](CCCCN)C(=O)N[C@@H](Cc1ccc(O)cc1)C(=O)N[C@@H](CC(C)C)C(=O)N[C@@H](CC(=O)O)C(=O)N[C@H]1CCC(=O)NCCCC[C@@H](C(=O)N[C@@H](CC(=O)O)C(=O)N[C@@H](Cc2ccccc2)C(=O)N[C@H](C(=O)N[C@@H](CCC(N)=O)C(=O)N[C@@H](Cc2c[nH]c3ccccc23)C(=O)N[C@@H](CC(C)C)C(=O)N[C@@H](CCSC)C(=O)N[C@@H](CC(N)=O)C(=O)N[C@H](C(=O)N[C@@H](CCCCN)C(=O)O)[C@@H](C)O)C(C)C)NC(=O)[C@H](C)NC(=O)[C@H](CCCNC(=N)N)NC(=O)[C@H](CCCNC(=N)N)NC1=O)C(=O)O` [Compound 14, H-HAibQGTFTSDZSKYLDERRAKDFVQWLMNTK-OH], the EC50 at Human GLP-1 receptors and on Human glucagon receptors was less than 10 pM throughout.

`CCCCCCCCCCCCCCCCCC(=O)N[C@@H](CCC(=O)NCCOCCOCC(=O)NCCOCCOCC(=O)NCCCC[C@H](NC(=O)[C@H](CC(=O)O)NC(=O)[C@H](CC(C)C)NC(=O)[C@H](Cc1ccc(O)cc1)NC(=O)[C@H](CCCCN)NC(=O)[C@H](CO)NC(=O)[C@H](Cc1ccc(O)cc1)NC(=O)[C@H](CC(=O)O)NC(=O)[C@H](CO)NC(=O)[C@@H](NC(=O)[C@H](Cc1ccccc1)NC(=O)[C@@H](NC(=O)CNC(=O)[C@H](CCC(N)=O)NC(=O)C(C)(C)NC(=O)[C@@H](N)Cc1c[nH]cn1)[C@@H](C)O)[C@@H](C)O)C(=O)N[C@@H](CCCNC(=N)N)C(=O)N[C@@H](CCCNC(=N)N)C(=O)N[C@@H](C)C(=O)N[C@@H](CCC(N)=O)C(=O)N[C@@H](CC(=O)O)C(=O)N[C@@H](Cc1ccccc1)C(=O)N[C@H](C(=O)N[C@@H](CCC(N)=O)C(=O)N[C@@H](Cc1c[nH]c2ccccc12)C(=O)N[C@@H](CC(C)C)C(=O)N[C@@H](CCSC)C(=O)N[C@@H](CC(N)=O)C(=O)N[C@H](C(=O)N[C@@H](CCCCN)C(=O)O)[C@@H](C)O)C(C)C)C(=O)O` [Compound 15, H-HAibQGTFTSDYSKYLDZRRAQDFVQWLMNTK-OH]: the EC50 on Human GLP-1 receptors and on Human glucagon receptors was less than 10 pM in each case.

As to `CCCCCCCCCCCCCCCCCC(=O)N[C@@H](CCC(=O)NCCOCCOCC(=O)NCCOCCOCC(=O)NCCCC[C@H](NC(=O)[C@H](C)NC(=O)[C@H](CCCNC(=N)N)NC(=O)[C@H](CCCNC(=N)N)NC(=O)C(C)(C)NC(=O)[C@H](CC(=O)O)NC(=O)[C@H](CC(C)C)NC(=O)[C@H](Cc1ccc(O)cc1)NC(=O)[C@H](CCCCN)NC(=O)[C@H](CO)NC(=O)[C@H](Cc1ccc(O)cc1)NC(=O)[C@H](CC(=O)O)NC(=O)[C@H](CO)NC(=O)[C@@H](NC(=O)[C@H](Cc1ccccc1)NC(=O)[C@@H](NC(=O)CNC(=O)[C@H](CCC(N)=O)NC(=O)C(C)(C)NC(=O)[C@@H](N)Cc1c[nH]cn1)[C@@H](C)O)[C@@H](C)O)C(=O)N[C@@H](CC(=O)O)C(=O)N[C@@H](Cc1ccccc1)C(=O)N[C@H](C(=O)N[C@@H](CCC(N)=O)C(=O)N[C@@H](Cc1c[nH]c2ccccc12)C(=O)N[C@@H](CC(C)C)C(=O)N[C@@H](CCSC)C(=O)N[C@@H](CC(N)=O)C(=O)N[C@H](C(=O)N[C@@H](CCCCN)C(=O)O)[C@@H](C)O)C(C)C)C(=O)O` [Compound 16], the concentration giving a half-maximal response (EC50) at Human GLP-1 receptors and at Human glucagon receptors was less than 10 pM each time.

Turning to `CCCCCCCCCCCCCCCCCC(=O)N[C@@H](CCC(=O)NCCOCCOCC(=O)NCCOCCOCC(=O)NCCCC[C@H](NC(=O)[C@H](CC(=O)O)NC(=O)[C@H](CO)NC(=O)[C@@H](NC(=O)[C@H](Cc1ccccc1)NC(=O)[C@@H](NC(=O)CNC(=O)[C@H](CCC(N)=O)NC(=O)C(C)(C)NC(=O)[C@@H](N)Cc1c[nH]cn1)[C@@H](C)O)[C@@H](C)O)C(=O)N[C@@H](CO)C(=O)N[C@@H](CCCCN)C(=O)N[C@@H](Cc1ccc(O)cc1)C(=O)N[C@@H](CC(C)C)C(=O)N[C@@H](CC(=O)O)C(=O)N[C@H]1CCC(=O)NCCCC[C@@H](C(=O)N[C@@H](CC(=O)O)C(=O)N[C@@H](Cc2ccccc2)C(=O)N[C@H](C(=O)N[C@@H](CCC(N)=O)C(=O)N[C@@H](Cc2c[nH]c3ccccc23)C(=O)N[C@@H](CC(C)C)C(=O)N[C@@H](CCSC)C(=O)N[C@@H](CC(N)=O)C(=O)N[C@H](C(=O)N[C@@H](CCCCN)C(N)=O)[C@@H](C)O)C(C)C)NC(=O)[C@H](C)NC(=O)[C@H](CCCNC(=N)N)NC(=O)[C@H](CCCNC(=N)N)NC1=O)C(=O)O` [Compound 19, H-HAibQGTFTSDZSKYLDERRAKDFVQWLMNTK-NH2], the 50% effective concentration (EC50) on Human GLP-1 receptors and at Human glucagon receptors was less than 10 pM each time.

For `CCCCCCCCCCCCCCCCCC(=O)N[C@@H](CCC(=O)NCCOCCOCC(=O)NCCOCCOCC(=O)NCCOCCOCC(=O)NCCCC[C@H](NC(=O)[C@H](CC(=O)O)NC(=O)[C@H](CO)NC(=O)[C@@H](NC(=O)[C@H](Cc1ccccc1)NC(=O)[C@@H](NC(=O)CNC(=O)[C@H](CCC(N)=O)NC(=O)C(C)(C)NC(=O)[C@@H](N)Cc1c[nH]cn1)[C@@H](C)O)[C@@H](C)O)C(=O)N[C@@H](CO)C(=O)N[C@@H](CCCCN)C(=O)N[C@@H](Cc1ccc(O)cc1)C(=O)N[C@@H](CC(C)C)C(=O)N[C@@H](CC(=O)O)C(=O)N[C@H]1CCC(=O)NCCCC[C@@H](C(=O)N[C@@H](CC(=O)O)C(=O)N[C@@H](Cc2ccccc2)C(=O)N[C@H](C(=O)N[C@@H](CCC(N)=O)C(=O)N[C@@H](Cc2c[nH]c3ccccc23)C(=O)N[C@@H](CC(C)C)C(=O)N[C@@H](CCSC)C(=O)N[C@@H](CC(N)=O)C(=O)N[C@H](C(=O)N[C@@H](CCCCN)C(=O)O)[C@@H](C)O)C(C)C)NC(=O)[C@H](C)NC(=O)[C@H](CCCNC(=N)N)NC(=O)[C@H](CCCNC(=N)N)NC1=O)C(=O)O` [Compound 20, H-HAibQGTFTSDZSKYLDERRAKDFVQWLMNTK-OH], the EC50 on Human GLP-1 receptors and at Human glucagon receptors was less than 10 pM in each case.

In general, EC50 refers to the concentration needed to bring the measured effect to its halfway point. A high value points to a less potent agent.
